Values quoted from earlier work in EP4603079A1, “COMPOSITION COMPRISING A PEPTIDE HAVING AN ISOELECTRIC POINT OF LESS THAN 6.5 AND A CO-POLYAMINO ACID BEARING CARBOXYLATE CHARGES AND HYDROPHOBIC RADICALS” (Adocia, priority 2024, dated 2025).

Target: T1, amylin receptor 3 (AMYR3) (Homo sapiens, UniProt O60896+P30988)
T1 sequence (P30988 25-474): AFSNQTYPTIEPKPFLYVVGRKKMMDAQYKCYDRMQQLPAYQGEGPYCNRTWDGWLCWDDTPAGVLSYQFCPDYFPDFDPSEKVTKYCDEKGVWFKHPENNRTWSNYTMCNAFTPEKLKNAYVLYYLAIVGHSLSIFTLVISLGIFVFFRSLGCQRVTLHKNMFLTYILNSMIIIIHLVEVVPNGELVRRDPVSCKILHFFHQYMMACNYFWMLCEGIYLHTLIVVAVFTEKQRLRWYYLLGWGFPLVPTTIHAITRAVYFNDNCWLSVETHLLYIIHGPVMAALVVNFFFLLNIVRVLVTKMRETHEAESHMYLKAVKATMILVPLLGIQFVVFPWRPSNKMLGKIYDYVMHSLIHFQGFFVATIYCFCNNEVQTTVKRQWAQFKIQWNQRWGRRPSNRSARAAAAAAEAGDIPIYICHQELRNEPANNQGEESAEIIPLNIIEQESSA
T1 sequence (O60896 24-148): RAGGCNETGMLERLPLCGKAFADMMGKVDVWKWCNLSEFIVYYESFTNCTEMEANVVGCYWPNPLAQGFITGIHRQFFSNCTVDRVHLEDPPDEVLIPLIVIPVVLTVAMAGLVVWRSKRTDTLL
Conditions: procedure of WO2022129526, Assay 2; Tables 4b and 4c there; read-out: EC50value

## N-alpha-[(S)-4-Carboxy-4-(19-carboxynonadecanoylamino)butyryl]-[Glu14,Arg17,Pro37]-pramlintide [cagrilintide]
  EC50: ~11 pM
